Here are results for one compound from PMC5218480 (PLoS ONE, 2017).

This assay concerns MV-4-11 cells. The experiment in a line: Gene expression microarray analysis (Affymetrix PrimeView) and GSEA. The format is cell-based, human. Details: RFU PODN (11730768_x_at) / Fold change /veh PODN (11730768_x_at) / RFU LINC00158 (11744669_a_at) / Fold change /veh LINC00158 (11744669_a_at) / RFU DUSP10 (11751237_a_at) / Fold change /veh DUSP10 (11751237_a_at) / RFU ID3 (11757404_x_at) / Fold change /veh ID3 (11757404_x_at) / RFU PLEKHG5 (11737974_s_at) / Fold change /veh PLEKHG5 (11737974_s_at) / RFU LRRC4B (11730491_at) / Fold change /veh LRRC4B (11730491_at) / RFU GIMAP4 (11747438_a_at) / Fold change /veh GIMAP4 (11747438_a_at) / RFU KRT8 (11758183_x_at) / Fold change /veh KRT8 (11758183_x_at) / RFU CNN1 (11734310_a_at) / Fold change /veh CNN1 (11734310_a_at) / RFU VPS37D (11726825_at) / Fold change /veh VPS37D (11726825_at) / RFU C10orf10 (11716522_x_at) / Fold change /veh C10orf10 (11716522_x_at) / RFU KIR2DL2 /// KIR2DL4 /// KIR2DL5A /// KIR2DL5B /// KIR2DS1 /// KIR2DS2 /// KIR2DS3 /// KIR2DS4 /// KIR3DL3 /// KIR3DL3 /// KIR3DS1 (11738374_at) / Fold change /veh KIR2DL2 /// KIR2DL4 /// KIR2DL5A /// KIR2DL5B /// KIR2DS1 /// KIR2DS2 /// KIR2DS3 /// KIR2DS4 /// KIR3DL3 /// KIR3DL3 /// KIR3DS1 (11738374_at) / RFU C1QL1 (11718748_at) / Fold change /veh C1QL1 (11718748_at) / RFU TMPRSS4 (11747572_a_at) / Fold change /veh TMPRSS4 (11747572_a_at) / RFU HAMP (11756126_x_at) / Fold change /veh HAMP (11756126_x_at) / RFU RNFT2 (11725882_a_at) / Fold change /veh RNFT2 (11725882_a_at) / RFU NR4A2 (11747474_a_at) / Fold change /veh NR4A2 (11747474_a_at) / RFU ABCC12 (11746883_a_at) / Fold change /veh ABCC12 (11746883_a_at) / RFU TMEM136 (11760407_x_at) / Fold change /veh TMEM136 (11760407_x_at) / RFU CLDN22 /// WWC2 (11732394_at) / Fold change /veh CLDN22 /// WWC2 (11732394_at) / RFU HLA-DPB1 (11760878_x_at) / Fold change /veh HLA-DPB1 (11760878_x_at) / RFU SPINT1 (11716480_a_at) / Fold change /veh SPINT1 (11716480_a_at) / RFU GAP43 (11754022_s_at) / Fold change /veh GAP43 (11754022_s_at) / RFU A4GNT (11735810_at) / Fold change /veh A4GNT (11735810_at) / RFU PRB3 (11715151_x_at) / Fold change /veh PRB3 (11715151_x_at) / RFU TUBB4B (11761932_at) / Fold change /veh TUBB4B (11761932_at) / RFU CAPN14 (11732068_a_at) / Fold change /veh CAPN14 (11732068_a_at) / RFU TMCC2 (11721928_a_at) / Fold change /veh TMCC2 (11721928_a_at) / RFU IRGQ (11745062_a_at) / Fold change /veh IRGQ (11745062_a_at) / RFU FAM174B (11720279_a_at) / Fold change /veh FAM174B (11720279_a_at) / RFU TMPRSS4 (11748680_a_at) / Fold change /veh TMPRSS4 (11748680_a_at) / RFU FAM212B (11763350_a_at) / Fold change /veh FAM212B (11763350_a_at) / RFU PLEKHG5 (11743358_a_at) / Fold change /veh PLEKHG5 (11743358_a_at) / RFU ZSCAN30 (11745921_a_at) / Fold change /veh ZSCAN30 (11745921_a_at) / RFU CMKLR1 (11741424_a_at) / Fold change /veh CMKLR1 (11741424_a_at) / RFU LOC101060620 /// MAPK8IP1 (11723275_at) / Fold change /veh LOC101060620 /// MAPK8IP1 (11723275_at) / RFU SPTSSB (11747773_x_at) / Fold change /veh SPTSSB (11747773_x_at) / RFU PRSS12 (11739890_at) / Fold change /veh PRSS12 (11739890_at) / RFU BIN1 (11741810_x_at) / Fold change /veh BIN1 (11741810_x_at) / RFU WNT11 (11732464_a_at) / Fold change /veh WNT11 (11732464_a_at) / RFU C10orf10 (11716521_a_at) / Fold change /veh C10orf10 (11716521_a_at) / RFU C5orf56 (11738089_at) / Fold change /veh C5orf56 (11738089_at) / RFU CYB561 (11721691_x_at) / Fold change /veh CYB561 (11721691_x_at) / RFU ANKRD19P (11752326_a_at) / Fold change /veh ANKRD19P (11752326_a_at) / RFU OR2T12 /// OR2T33 /// OR2T8 (11738714_s_at) / Fold change /veh OR2T12 /// OR2T33 /// OR2T8 (11738714_s_at) / RFU VCAN (11748164_a_at) / Fold change /veh VCAN (11748164_a_at) / RFU JSRP1 (11732532_at) / Fold change /veh JSRP1 (11732532_at) / RFU KRTAP10-11 (11738290_x_at) / Fold change /veh KRTAP10-11 (11738290_x_at) / RFU MYO3A (11730013_a_at) / Fold change /veh MYO3A (11730013_a_at) / RFU EBF3 (11725865_a_at) / Fold change /veh EBF3 (11725865_a_at) / RFU CAMK2N1 (11719241_x_at) / Fold change /veh CAMK2N1 (11719241_x_at) / RFU C5orf56 (11738088_a_at) / Fold change /veh C5orf56 (11738088_a_at) / RFU OLFML3 (11715873_a_at) / Fold change /veh OLFML3 (11715873_a_at) / RFU LOC100653217 /// NTM (11731650_a_at) / Fold change /veh LOC100653217 /// NTM (11731650_a_at) / RFU MAPK11 (11762145_a_at) / Fold change /veh MAPK11 (11762145_a_at) / RFU FIZ1 (11724087_x_at) / Fold change /veh FIZ1 (11724087_x_at) / RFU OASL (11726364_x_at) / Fold change /veh OASL (11726364_x_at) / RFU SOX15 (11748057_x_at) / Fold change /veh SOX15 (11748057_x_at) / RFU CD79A (11719716_a_at) / Fold change /veh CD79A (11719716_a_at) / RFU HIST1H1D (11736915_at) / Fold change /veh HIST1H1D (11736915_at) / RFU CASKIN2 (11723855_a_at) / Fold change /veh CASKIN2 (11723855_a_at) / RFU LOC730098 (11760151_x_at) / Fold change /veh LOC730098 (11760151_x_at) / RFU OR4N2 (11742367_at) / Fold change /veh OR4N2 (11742367_at) / RFU PRRT2 (11749266_a_at) / Fold change /veh PRRT2 (11749266_a_at) / RFU SNX32 (11753110_a_at) / Fold change /veh SNX32 (11753110_a_at) / RFU CDHR5 (11726645_a_at) / Fold change /veh CDHR5 (11726645_a_at) / RFU RCAN1 (11760418_a_at) / Fold change /veh RCAN1 (11760418_a_at) / RFU FAM167A (11723789_a_at) / Fold change /veh FAM167A (11723789_a_at) / RFU FAM26E (11764081_at) / Fold change /veh FAM26E (11764081_at) / RFU ISYNA1 (11749810_s_at) / Fold change /veh ISYNA1 (11749810_s_at) / RFU ACY1 (11761880_at) / Fold change /veh ACY1 (11761880_at) / RFU 11764098_at / Fold change /veh 11764098_at / RFU SAMD14 (11745864_x_at) / Fold change /veh SAMD14 (11745864_x_at) / RFU NPB (11741838_a_at) / Fold change /veh NPB (11741838_a_at) / RFU TMPRSS6 (11731388_a_at) / Fold change /veh TMPRSS6 (11731388_a_at) / RFU KRTAP10-2 (11738614_at) / Fold change /veh KRTAP10-2 (11738614_at) / RFU ARHGAP8 /// PRR5-ARHGAP8 (11727945_x_at) / Fold change /veh ARHGAP8 /// PRR5-ARHGAP8 (11727945_x_at) / RFU KRTAP5-7 /// NADSYN1 (11734609_at) / Fold change /veh KRTAP5-7 /// NADSYN1 (11734609_at) / RFU RASL12 (11751679_a_at) / Fold change /veh RASL12 (11751679_a_at) / RFU CDKN2B (11736163_a_at) / Fold change /veh CDKN2B (11736163_a_at) / RFU PRF1 (11729649_at) / Fold change /veh PRF1 (11729649_at) / RFU, ZNF638 /// ZNF638-IT1 / Fold change vs veh, ZNF638 /// ZNF638-IT1 / RFU, PANK3 / Fold change vs veh, PANK3 / RFU, SH3YL1 / Fold change vs veh, SH3YL1 / RFU, ZEB2 / Fold change vs veh, ZEB2 / RFU, NRIP1 / Fold change vs veh, NRIP1 / RFU, PTTG1IP / Fold change vs veh, PTTG1IP / RFU, CAPN2 / Fold change vs veh, CAPN2 / RFU, MED14 / Fold change vs veh, MED14 / RFU, SNORA58 / Fold change vs veh, SNORA58 / RFU, C1orf63 / Fold change vs veh, C1orf63 / RFU, LRRFIP1 / Fold change vs veh, LRRFIP1 / RFU, NDUFAF7 / Fold change vs veh, NDUFAF7 / RFU, SLC12A2 / Fold change vs veh, SLC12A2 / RFU, IBTK / Fold change vs veh, IBTK / RFU, ESF1 / Fold change vs veh, ESF1 / Fold change vs veh, TMEM50B / RFU, TAOK1 / Fold change vs veh, TAOK1 / RFU, ACBD3 / Fold change vs veh, ACBD3 / RFU, TMA16 / Fold change vs veh, TMA16 / RFU, RWDD3 / Fold change vs veh, RWDD3 / RFU, BCAT1 / Fold change vs veh, BCAT1 / RFU, EDEM3 / Fold change vs veh, EDEM3 / RFU, TMEM33 / Fold change vs veh, TMEM33 / RFU, WDR75 / Fold change vs veh, WDR75 / RFU, AHCTF1 / Fold change vs veh, AHCTF1 / RFU, TFRC / Fold change vs veh, TFRC / RFU, ZDHHC17 / Fold change vs veh, ZDHHC17 / RFU, NOM1 / Fold change vs veh, NOM1 / RFU, ARL8B / Fold change vs veh, ARL8B / RFU, ZBTB11 / Fold change vs veh, ZBTB11 / RFU, TAMM41 / Fold change vs veh, TAMM41 / RFU, KIAA1704 /// LOC100996395 / Fold change vs veh, KIAA1704 /// LOC100996395 / RFU, ING1 / Fold change vs veh, ING1 / RFU, TRMT61B / Fold change vs veh, TRMT61B / RFU, FUBP3 / Fold change vs veh, FUBP3 / RFU, TP53 / Fold change vs veh, TP53 / RFU, TNKS2 / Fold change vs veh, TNKS2 / RFU, ZFP14 / Fold change vs veh, ZFP14 / RFU, ACTR2 / Fold change vs veh, ACTR2 / RFU, PPP3R1 / Fold change vs veh, PPP3R1 / RFU, PIK3R1 / Fold change vs veh, PIK3R1 / RFU, HNRNPA1 / Fold change vs veh, HNRNPA1 / RFU, RNF170 / Fold change vs veh, RNF170 / RFU, ZNF28 / Fold change vs veh, ZNF28 / RFU, RNGTT / Fold change vs veh, RNGTT / RFU, OGT / Fold change vs veh, OGT / RFU, BRD1 / Fold change vs veh, BRD1 / RFU, MARS / Fold change vs veh, MARS / RFU, ZNF655 / Fold change vs veh, ZNF655 / RFU, FAHD1 / Fold change vs veh, FAHD1 / RFU, BDP1 / Fold change vs veh, BDP1 / RFU, LRRCC1 / Fold change vs veh, LRRCC1 / RFU, ARID1A / Fold change vs veh, ARID1A / RFU, ZNF146 / Fold change vs veh, ZNF146 / RFU, ZNF330 / Fold change vs veh, ZNF330 / RFU, GPN3 / Fold change vs veh, GPN3 / RFU, C9orf123 / Fold change vs veh, C9orf123 / RFU, N4BP2L2 / Fold change vs veh, N4BP2L2 / RFU, ARFIP1 / Fold change vs veh, ARFIP1 / RFU, FAM179B / Fold change vs veh, FAM179B / RFU, BCL10 / Fold change vs veh, BCL10 / RFU, UHRF1BP1L / Fold change vs veh, UHRF1BP1L / RFU, BET1 / Fold change vs veh, BET1 / RFU, CNOT2 / Fold change vs veh, CNOT2 / RFU, ZNF268 / Fold change vs veh, ZNF268 / Fold change vs veh, ZNF507 / RFU, DGCR2 / Fold change vs veh, DGCR2 / RFU, WDSUB1 / Fold change vs veh, WDSUB1 / Fold change vs veh, HSP90B1 /// MIR3652 / RFU, ADSS / Fold change vs veh, ADSS / RFU, GK / Fold change vs veh, GK / RFU, ZNF148 / Fold change vs veh, ZNF148 / RFU, TAF9 / Fold change vs veh, TAF9 / RFU, SLC1A5 / Fold change vs veh, SLC1A5 / RFU, SLMO2 / Fold change vs veh, SLMO2 / RFU, ABCC4 / Fold change vs veh, ABCC4 / RFU, LOC101060439 /// RAP1B / Fold change vs veh, LOC101060439 /// RAP1B / RFU, RFX7 / Fold change vs veh, RFX7 / RFU, GTPBP10 / Fold change vs veh, GTPBP10 / RFU, CNEP1R1 / Fold change vs veh, CNEP1R1 / RFU, BIVM-ERCC5 /// ERCC5 / Fold change vs veh, BIVM-ERCC5 /// ERCC5 / RFU, ILF3 / Fold change vs veh, ILF3 / RFU 11762660_at / Fold change /veh 11762660_at / RFU VCAN (11757783_s_at) / Fold change /veh VCAN (11757783_s_at) / RFU DDX43 (11728927_at) / Fold change /veh DDX43 (11728927_at) / RFU KRT8 (11758188_x_at) / Fold change /veh KRT8 (11758188_x_at) / RFU NKD1 (11759106_at) / Fold change /veh NKD1 (11759106_at) / RFU SRD5A1 (11742802_a_at) / Fold change /veh SRD5A1 (11742802_a_at) / RFU TPSAB1 /// TPSB2 (11721975_s_at) / Fold change /veh TPSAB1 /// TPSB2 (11721975_s_at) / RFU GSTM3 (11746129_a_at) / Fold change /veh GSTM3 (11746129_a_at) / RFU IL23R (11737362_x_at) / Fold change /veh IL23R (11737362_x_at) / RFU TMEM51 (11727254_a_at) / Fold change /veh TMEM51 (11727254_a_at) / RFU PIWIL2 (11732686_x_at) / Fold change /veh PIWIL2 (11732686_x_at) / RFU ORM1 (11744905_x_at) / Fold change /veh ORM1 (11744905_x_at) / RFU CCDC152 (11743942_at) / Fold change /veh CCDC152 (11743942_at) / RFU ECM1 (11717891_a_at) / Fold change /veh ECM1 (11717891_a_at) / RFU IL23R (11748794_a_at) / Fold change /veh IL23R (11748794_a_at) / RFU TNFAIP8L3 (11732012_x_at) / Fold change /veh TNFAIP8L3 (11732012_x_at) / RFU MBOAT4 (11741988_at) / Fold change /veh MBOAT4 (11741988_at) / RFU 11764193_at / Fold change /veh 11764193_at / RFU TMEM53 (11763286_at) / Fold change /veh TMEM53 (11763286_at) / RFU MAGEB2 (11727129_at) / Fold change /veh MAGEB2 (11727129_at) / RFU TMEM200A (11744735_a_at) / Fold change /veh TMEM200A (11744735_a_at) / RFU CCDC152 (11751479_a_at) / Fold change /veh CCDC152 (11751479_a_at) / RFU FAM211A (11726209_a_at) / Fold change /veh FAM211A (11726209_a_at) / RFU RGS16 (11746705_a_at) / Fold change /veh RGS16 (11746705_a_at) / RFU VCAN (11755009_s_at) / Fold change /veh VCAN (11755009_s_at) / RFU RHOB (11743442_s_at) / Fold change /veh RHOB (11743442_s_at) / RFU RGS16 (11720943_a_at) / Fold change /veh RGS16 (11720943_a_at) / RFU RGS16 (11720944_at) / Fold change /veh RGS16 (11720944_at) / RFU, VPS4B / Fold change vs veh, VPS4B / RFU, CREB1 / Fold change vs veh, CREB1 / RFU, DNAJC13 / Fold change vs veh, DNAJC13 / RFU, GNAQ / Fold change vs veh, GNAQ / RFU, CDK5R1 / Fold change vs veh, CDK5R1 / RFU, ZRANB3 / Fold change vs veh, ZRANB3 / RFU, CUL4A / Fold change vs veh, CUL4A / RFU, CCNY / Fold change vs veh, CCNY / RFU, UFL1 / Fold change vs veh, UFL1 / RFU, COG3 / Fold change vs veh, COG3 / RFU, DIAPH2 / Fold change vs veh, DIAPH2 / RFU, SKA2 / Fold change vs veh, SKA2 / RFU, AFF3 / Fold change vs veh, AFF3 / RFU, LMF1 / Fold change vs veh, LMF1 / RFU, IPO11 / Fold change vs veh, IPO11 / RFU, DFFB / Fold change vs veh, DFFB / RFU, FOXP1 / Fold change vs veh, FOXP1 / RFU, CARD8 / Fold change vs veh, CARD8 / RFU, STRN3 / Fold change vs veh, STRN3 / RFU, ADK / Fold change vs veh, ADK / RFU, RASSF2 / Fold change vs veh, RASSF2 / RFU, WIPF1 / Fold change vs veh, WIPF1 / RFU, LARP1B / Fold change vs veh, LARP1B / RFU, RASA1 / Fold change vs veh, RASA1 / RFU, RB1 / Fold change vs veh, RB1 / RFU, PPFIA1 / Fold change vs veh, PPFIA1 / RFU, MAT2A / Fold change vs veh, MAT2A / RFU, CCT5 / Fold change vs veh, CCT5 / RFU, WDR92 / Fold change vs veh, WDR92 / RFU, CUX1 / Fold change vs veh, CUX1 / RFU, TTC7A / Fold change vs veh, TTC7A / RFU, TMEM135 / Fold change vs veh, TMEM135 / RFU, DEPTOR / Fold change vs veh, DEPTOR / RFU, CPM / Fold change vs veh, CPM / RFU, DNAJB6 / Fold change vs veh, DNAJB6 / RFU, CACNA2D3 / Fold change vs veh, CACNA2D3 / RFU, DTX4 / Fold change vs veh, DTX4 / RFU, TFCP2 / Fold change vs veh, TFCP2 / RFU, GMCL1 /// GMCL1P1 / Fold change vs veh, GMCL1 /// GMCL1P1 / RFU, AEBP2 / Fold change vs veh, AEBP2 / RFU, SNHG1 /// SNORD22 /// SNORD25 /// SNORD26 /// SNORD27 /// SNORD28 /// SNORD29 /// SNORD31 / Fold change vs veh, SNHG1 /// SNORD22 /// SNORD25 /// SNORD26 /// SNORD27 /// SNORD28 /// SNORD29 /// SNORD31 / Fold change (Aza/veh), C12orf56 (ProbeSet 11735607_a_at) / Fold change (ACY-1035/veh), C12orf56 (ProbeSet 11735607_a_at) / Fold change (Aza/veh), FGFR1OP (ProbeSet 11751329_s_at) / Fold change (ACY-1035/veh), FGFR1OP (ProbeSet 11751329_s_at) / Fold change (Aza/veh), VPS36 (ProbeSet 11739960_a_at) / Fold change (ACY-1035/veh), VPS36 (ProbeSet 11739960_a_at) / RFU SYPL1 (11715823_x_at) / Fold change /veh SYPL1 (11715823_x_at) / RFU IGFBP7 (11715501_s_at) / Fold change /veh IGFBP7 (11715501_s_at) / RFU REEP3 (11722064_at) / Fold change /veh REEP3 (11722064_at) / RFU IGLL1 (11728026_x_at) / Fold change /veh IGLL1 (11728026_x_at): dose or concentration left out as unconfirmed. To be noted: ProbeSet 11740011_at; LIST B.

As for `Nc1ccc(-c2cccs2)cc1NC(=O)c1ccc2c(c1)cc(C1CC1)n2CCN1CCOCC1` [ACY-1035], the “Fold change vs veh, ZFP14” value was 1.03.
